In US20160089377A1, “THERAPEUTIC TARGETING OF THE MTOR PATHWAY IN NEURODEVELOPMENTAL AND NEUROPSYCHIATRIC DISEASE” (THE TRUSTEES OF COLUMBIA UNIVERISTY IN THE CITY OF NEW YORK, priority 2013, published 2016):
Entries after “also recorded” stand apart in the source; their conditions may differ.

Experiments:
[1] = test system: pyramidal cells of Cntnap2 (Caspr2) mutant mice; test: Soma size quantitation of pyramidal cells after WYE125132 treatment; type: in vivo
Source text: In order to assess whether we could reverse or prevent the cellular abnormalities (i.e., enlarged pyramidal cell size), we treated with WYE125132 (‘Tx’ in FIG. 12) or vehicle (‘veh’ in FIG. 12) Caspr2^+/−/Thy1-YFP/H and Caspr2^−/−/Thy-1-YFP/H mice and WT littermates also positive for YFP/H for the entire period P12-P35. The mice were perfused and subsequently fixed with 4% PFA and sectioned coronally at 16 microns. Subsequently, 200× images were taken using an epifluorescent microscope of somatosensory and auditory cortex—a total of 15 images per animal/cortical region. The cell somata were traced on Photoshop to quantify pixels. We then converted the pixels to square microns. For the analysis listed here, Caspr2^+/−/Thy1-YFP/H and
Cntnap2 mutant and WT mice were obtained from heterozygous crossings and were born with the expected Mendelian frequencies. […]
WYE125132 (Chemscene) was administered by a daily p.o. gavaging in a volume of 10 ml/kg. […] For the two-photon and cell size quantitation studies, mice were gavaged from P12 to p35, after they were
Soma Size Quantitation. […]
perfused with PBS and then 4% PFA and subsequently post-fixed in 4% PFA for 1 hour at 4° C. […] Sections containing auditory and somatosensory cortices were analyzed. […] Soma size was determined by manually tracing pyramidal cell somata and measuring pixel number per selection. […] For each animal, 90 to 140 somata were measured. […]

[2] = test system: glutamate receptor subunits GluR1, GluR2, NR1, NR2A, NR2B and mGluR5; test: Immunoblot of glutamate receptor subunits in PFC homogenates after treatment; type: in vivo, mice; settings: for expression of glutamate receptor subunits altered in mutants: Cntnap2-/- and Cntnap2+/- mice aged 5-8 months
Method: euthanized. For the electrophysiology and western blot rescue experiments, adult mice were gavaged for 14 consecutive days after which they were euthanized.
Western blot analysis of mouse brain tissue and immunocytochemistry in human brain tissue was performed using standard methods.
We also evaluated whether treatment with WYE126132 reverses the alterations in the expression of the glutamate receptor subunits found in Cntnap2 mutant mice. Mice aged 5-8 months were treated for consecutive days.

Cntnap2 mutant mice = test: Novel Object Recognition (NOR) test; type: in vivo; settings: WYE125132-treated Cntnap2-/- mice, P<0.05
Method: Cntnap2 mutant and WT mice were obtained from heterozygous crossings and were born with the expected Mendelian frequencies. The three obtained genotypes were housed together. Mice were treated with p.o. gavaging once per day with either WYE125132 (10 mg/kg) or vehicle. All procedures involving animals were performed in accordance with the Columbia University/New York State Psychiatric Institute animal research committee.
WYE125132 (Chemscene) was administered by a daily p.o. gavaging in a volume of 10 ml/kg. For all behavioral experiments, dams were treated from PO to P12 after which individual pups were gavaged on a daily basis going forward. Mice also received drug treatment on the days of testing, at least 1 hour prior the experiment. For the two-photon and cell size quantitation studies, mice were gavaged from P12 to p35, after they were
Mice were marked with ear tagging. Experimenters were blinded to the genotype during testing. Behavioral tests were performed in the New York State Psychiatric Institute behavioral test core facility.
We examined whether we could reverse cognitive deficits in Cntnap2 mutant mice. We subjected Cntnap2 mutant mice to the Novel Object Recognition (NOR) test, a behavioral task that requires precise cognitive control. […]

In the case of `CNC(=O)Nc1ccc(-c2nc(N3CC4CCC(C3)O4)c3cnn(C4CCC5(CC4)OCCO5)c3n2)cc1` [WYE125132], the “enlarged pyramidal cell soma size” value ([1]; Cntnap2+/- and Cntnap2-/- (Caspr2) mutant mice, daily p.o. gavage 10 mg/kg, P12 to P33-36 (about 3 weeks), 10 mg/kg) is reported as “completely reverses the enlarged pyramidal cell size; also recorded: complete reversal of the pyramidal cell enlargement phenotype; also recorded: entirely rescued”, the “soma size in WT animals” value ([1]; WT mice, compound versus vehicle) is reported as “no effect on soma size” and the “expression of glutamate receptor subunits altered in mutants” value [2] is reported as “entirely reversed; also recorded: complete normalization of all glutamate receptor subunits”. The “expression of glutamate receptor subunits altered in mutants” value ([2]; listed as WYE126132) was “complete normalization of all glutamate receptor subunits”, the “expression of glutamate receptor subunits in WT animals” value ([2]; WT mice) was “no effects” and the “deficit in the Novel Object Recognition test” value (Cntnap2 mutant mice) was “rescue of this phenotype; also recorded: rescue of a deficit”.
